Measured values taken from ChEMBL document CHEMBL5321234, “Discovery of Thieno[3,2-d]pyrimidine derivatives as potent and selective inhibitors of ataxia telangiectasia mutated and Rad3 related (ATR) kinase” (Eur J Med Chem, 2023).

Key:
[1] = AUC (0 to infinity) in ICR mouse at 1 mg/kg, iv measured upto 24 hrs by LC-MS/MS analysis; type: ADME, organism-based; design: dose 1 mg/kg, time < 24 hrs, route iv; settings: in vivo
[2] = MRT (0 to infinity) in ICR mouse at 10 mg/kg, po measured upto 24 hrs by LC-MS/MS analysis; type: ADME, organism-based; settings: in vivo
[3] = target: Serine/threonine-protein kinase ATR (Homo sapiens, UniProt Q13535); experiment: Inhibition of ATR (unknown origin)
Serine/threonine-protein kinase ATR, sequence (Q13535 whole entry): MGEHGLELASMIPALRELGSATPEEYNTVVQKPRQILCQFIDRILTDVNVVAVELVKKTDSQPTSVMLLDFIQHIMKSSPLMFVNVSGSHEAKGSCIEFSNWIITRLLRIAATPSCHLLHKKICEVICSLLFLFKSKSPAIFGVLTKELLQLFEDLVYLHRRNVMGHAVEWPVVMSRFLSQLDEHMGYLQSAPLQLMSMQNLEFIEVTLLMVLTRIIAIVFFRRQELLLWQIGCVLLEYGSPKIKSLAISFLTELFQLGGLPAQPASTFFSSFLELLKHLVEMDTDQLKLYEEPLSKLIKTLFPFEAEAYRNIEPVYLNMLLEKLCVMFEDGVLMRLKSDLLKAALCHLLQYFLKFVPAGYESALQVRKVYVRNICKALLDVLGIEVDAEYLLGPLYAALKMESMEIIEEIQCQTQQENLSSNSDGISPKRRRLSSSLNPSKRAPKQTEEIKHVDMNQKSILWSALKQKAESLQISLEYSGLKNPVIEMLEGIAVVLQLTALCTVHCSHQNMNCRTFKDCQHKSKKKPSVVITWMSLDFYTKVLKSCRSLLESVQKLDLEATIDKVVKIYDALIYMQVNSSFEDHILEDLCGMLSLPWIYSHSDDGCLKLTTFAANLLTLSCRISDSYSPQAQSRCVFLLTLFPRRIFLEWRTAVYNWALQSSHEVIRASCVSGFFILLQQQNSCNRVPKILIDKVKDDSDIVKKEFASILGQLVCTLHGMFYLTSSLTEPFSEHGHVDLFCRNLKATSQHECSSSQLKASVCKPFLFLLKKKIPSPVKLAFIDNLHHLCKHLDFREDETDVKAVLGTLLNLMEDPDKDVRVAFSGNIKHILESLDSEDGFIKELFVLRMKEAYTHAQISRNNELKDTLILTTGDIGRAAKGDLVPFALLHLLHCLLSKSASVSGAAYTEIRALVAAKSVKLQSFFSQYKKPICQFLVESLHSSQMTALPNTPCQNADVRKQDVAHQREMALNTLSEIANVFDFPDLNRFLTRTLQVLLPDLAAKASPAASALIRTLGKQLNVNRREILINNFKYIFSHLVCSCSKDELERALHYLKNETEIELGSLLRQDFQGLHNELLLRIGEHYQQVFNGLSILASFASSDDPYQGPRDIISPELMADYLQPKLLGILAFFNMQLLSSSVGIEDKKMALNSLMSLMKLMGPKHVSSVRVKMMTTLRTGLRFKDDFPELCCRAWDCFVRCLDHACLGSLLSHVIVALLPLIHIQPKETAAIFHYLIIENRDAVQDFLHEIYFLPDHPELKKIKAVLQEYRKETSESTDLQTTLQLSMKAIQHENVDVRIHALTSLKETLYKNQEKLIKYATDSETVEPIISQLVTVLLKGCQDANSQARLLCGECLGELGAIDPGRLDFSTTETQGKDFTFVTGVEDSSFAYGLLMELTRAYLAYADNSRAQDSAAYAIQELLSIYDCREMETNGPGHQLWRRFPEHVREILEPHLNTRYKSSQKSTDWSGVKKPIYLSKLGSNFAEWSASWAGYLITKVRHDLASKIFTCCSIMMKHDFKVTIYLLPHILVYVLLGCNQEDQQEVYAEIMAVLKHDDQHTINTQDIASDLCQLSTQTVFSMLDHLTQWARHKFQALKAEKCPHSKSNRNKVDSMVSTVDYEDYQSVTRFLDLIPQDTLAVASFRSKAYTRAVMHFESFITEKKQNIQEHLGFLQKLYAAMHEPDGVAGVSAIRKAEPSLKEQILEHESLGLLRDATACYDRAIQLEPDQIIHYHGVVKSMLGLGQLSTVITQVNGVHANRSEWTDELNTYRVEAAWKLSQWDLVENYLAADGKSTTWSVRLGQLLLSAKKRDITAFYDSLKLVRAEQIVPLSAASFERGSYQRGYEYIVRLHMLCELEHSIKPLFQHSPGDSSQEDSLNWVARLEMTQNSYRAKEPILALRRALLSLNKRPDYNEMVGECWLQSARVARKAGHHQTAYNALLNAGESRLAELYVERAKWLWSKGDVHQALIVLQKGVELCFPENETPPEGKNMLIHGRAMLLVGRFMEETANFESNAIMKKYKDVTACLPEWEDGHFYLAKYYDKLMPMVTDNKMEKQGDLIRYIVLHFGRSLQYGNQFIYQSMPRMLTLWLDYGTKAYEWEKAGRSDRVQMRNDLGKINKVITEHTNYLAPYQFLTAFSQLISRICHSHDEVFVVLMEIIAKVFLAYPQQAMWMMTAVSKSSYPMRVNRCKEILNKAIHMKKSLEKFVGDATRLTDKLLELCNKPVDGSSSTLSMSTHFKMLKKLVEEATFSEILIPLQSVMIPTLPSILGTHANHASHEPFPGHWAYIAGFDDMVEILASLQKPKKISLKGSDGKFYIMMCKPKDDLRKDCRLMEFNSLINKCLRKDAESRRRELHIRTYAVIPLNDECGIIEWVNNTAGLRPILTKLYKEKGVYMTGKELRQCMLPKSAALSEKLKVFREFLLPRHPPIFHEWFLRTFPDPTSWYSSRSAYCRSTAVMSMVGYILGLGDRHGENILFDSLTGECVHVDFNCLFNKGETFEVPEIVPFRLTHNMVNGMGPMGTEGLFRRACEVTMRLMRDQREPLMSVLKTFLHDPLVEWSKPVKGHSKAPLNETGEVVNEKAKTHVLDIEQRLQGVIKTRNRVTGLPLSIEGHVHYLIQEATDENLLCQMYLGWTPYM

[4] = Cmax in ICR mouse at 10 mg/kg, po measured upto 24 hrs by LC-MS/MS analysis; type: ADME, organism-based; design: time < 24 hrs, dose 10 mg/kg, route po; settings: in vivo
[5] = MRT (0 to infinity) in ICR mouse at 1 mg/kg, iv measured upto 24 hrs by LC-MS/MS analysis; type: ADME, organism-based; settings: ICR, in vivo
[6] = AUC (0 to t) in ICR mouse at 10 mg/kg, po measured upto 24 hrs by LC-MS/MS analysis; type: ADME, organism-based; design: dose 10 mg/kg, time < 24 hrs, route po; settings: in vivo
LoVo [7] = experiment: Antiproliferative activity against human LoVo cells incubated for 72 hrs by CCK-8 assay; type: functional, cell-based
[8] = Clearance in ICR mouse at 1 mg/kg, iv measured upto 24 hrs by LC-MS/MS analysis; type: ADME, organism-based; settings: ICR, in vivo
[9] = Half life in ICR mouse at 10 mg/kg, po measured upto 24 hrs by LC-MS/MS analysis; type: ADME, organism-based; settings: in vivo
[10] = Volume of distribution at steady state in ICR mouse at 1 mg/kg, iv measured upto 24 hrs by LC-MS/MS analysis; type: ADME, organism-based; settings: ICR, in vivo, read-out: Vdss
[11] = Tmax in ICR mouse at 1 mg/kg, iv measured upto 24 hrs by LC-MS/MS analysis; type: ADME, organism-based; settings: in vivo
[12] = Half life in ICR mouse at 1 mg/kg, iv measured upto 24 hrs by LC-MS/MS analysis; type: ADME, organism-based; settings: in vivo
[13] = MRT (0 to t) in ICR mouse at 10 mg/kg, po measured upto 24 hrs by LC-MS/MS analysis; type: ADME, organism-based; settings: in vivo
[14] = MRT (0 to t) in ICR mouse at 1 mg/kg, iv measured upto 24 hrs by LC-MS/MS analysis; type: ADME, organism-based; settings: in vivo
[15] = Tmax in ICR mouse at 10 mg/kg, po measured upto 24 hrs by LC-MS/MS analysis; type: ADME, organism-based; settings: in vivo
[16] = Initial plasma concentration in ICR mouse at 1 mg/kg, iv measured upto 24 hrs by LC-MS/MS analysis; type: ADME, organism-based
[17] = Cmax in ICR mouse at 1 mg/kg, iv measured upto 24 hrs by LC-MS/MS analysis; type: ADME, organism-based; design: time < 24 hrs, dose 1 mg/kg, route iv; settings: in vivo
[18] = AUC (0 to infinity) in ICR mouse at 10 mg/kg, po measured upto 24 hrs by LC-MS/MS analysis; type: ADME, organism-based; design: dose 10 mg/kg, time < 24 hrs, route po; settings: in vivo
[19] = Oral bioavailability in ICR mouse at 10 mg/kg measured upto 24 hrs by LC-MS/MS analysis; type: ADME, organism-based; settings: in vivo
[20] = AUC (0 to t) in ICR mouse at 1 mg/kg, iv measured upto 24 hrs by LC-MS/MS analysis; type: ADME, organism-based; design: dose 1 mg/kg, time < 24 hrs, route iv; settings: in vivo
LoVo [21] = experiment: Antitumor activity against human LoVo cells xenografted in BALB/c mouse assessed as tumor growth inhibition at 50 mg/kg, po bid 3 days on/4 days off administered for 21 consecutive days relative to control; type: functional; settings: 504 h, time 21 day, read-out: TGI
HT-29 = experiment: Antiproliferative activity against human HT-29 cells incubated for 72 hrs by CCK-8 assay; type: functional, cell-based; settings: HT-29, 72 h

C[C@@H]1COCCN1c1nc(-n2c(N)nc3ccccc32)nc2c(S(C)(=O)=O)csc12
AUC(0-inf) [1]: 0.226 µg·h/mL
MRT inf [2]: 65.4 min
IC50 [3]: 0.001 µM
Cmax [4]: 0.994 µg/mL
MRT inf [5]: 10.8 min
AUC(0-t) at 24 h [6]: 0.735 µg·h/mL
IC50 (LoVo [7]): 0.064 µM
clearance [8]: 4.5 L/h/kg
half-life [9]: 74.4 min
Vd [10]: 0.827 L/kg
Tmax [11]: 4.8 min
half-life [12]: 7.8 min
MRT last at 24 h [13]: 61.8 min
MRT last at 24 h [14]: 9.6 min
Tmax [15]: 15 min
C0 at 24 h [16]: 1.08 µg/mL
Cmax [17]: 0.698 µg/mL
AUC(0-inf) [18]: 0.741 µg·h/mL
bioavailability [19]: 32.8%
AUC(0-t) at 24 h [20]: 0.221 µg·h/mL

C[C@@H]1COCCN1c1cc(-c2ccnn2C)c2ccnc(-c3ccn[nH]3)c2n1 [ELIMUSERTIB]
inhibition in vivo at 50 mg/kg (LoVo [21]): 65%
IC50 (LoVo [7]): 0.041 µM

C[C@@H]1COCCN1c1nc(-n2c(N)nc3ccc(F)cc32)nc2c(S(C)(=O)=O)csc12
IC50 [3]: 0.0037 µM
IC50 (LoVo [7]): 0.36 µM

C[C@@H]1COCCN1c1nc(-c2ccnc3[nH]ccc23)nc2ccsc12
IC50 [3]: 0.0178 µM
IC50 (LoVo [7]): 3.34 µM

CC(C)n1c(=O)n(C)c2cnc3cc(F)c(-c4ccc(OCCCN5CCCCC5)nc4)cc3c21 [AZD-1390]
IC50 (HT-29): > 10 µM

C[C@@H]1COCCN1c1nc(-c2ccnc3[nH]ccc23)nc2c(C(C)(C)O)csc12
IC50 [3]: 0.0079 µM
IC50 (LoVo [7]): 0.221 µM

CC(O)c1csc2c(N3CCOC[C@H]3C)nc(-c3ccnc4[nH]ccc34)nc12 (stereo partly specified)
IC50 [3]: 0.0192 µM
IC50 (LoVo [7]): 0.694 µM

C[C@@H]1COCCN1c1nc(-n2c(C(F)F)nc3ccccc32)nc2c(S(C)(=O)=O)csc12
IC50 [3]: 0.0028 µM
IC50 (LoVo [7]): 0.177 µM

C[C@@H]1COCCN1c1nc(-c2cc(F)cc3[nH]ccc23)nc2c(S(C)(=O)=O)csc12
IC50 [3]: 0.0031 µM
IC50 (LoVo [7]): 0.259 µM

C[C@@H]1COCCN1c1nc(-c2cc(C(F)(F)F)cc3[nH]ccc23)nc2c(S(C)(=O)=O)csc12
IC50 [3]: 0.0029 µM
IC50 (LoVo [7]): 0.527 µM

C[C@@H]1COCCN1c1nc(-n2c(N(C)C)nc3ccccc32)nc2c(S(C)(=O)=O)csc12
IC50 [3]: 0.233 µM

CNc1nc2ccccc2n1-c1nc(N2CCOC[C@H]2C)c2scc([S+](C)[O-])c2n1 (stereo partly specified)
IC50 [3]: 0.0085 µM
IC50 (LoVo [7]): 0.264 µM

C[C@@H]1COCCN1c1nc(-n2c(=O)[nH]c3ccccc32)nc2c(S(C)(=O)=O)csc12
IC50 [3]: 0.123 µM
IC50 (LoVo [7]): > 10 µM

CNc1nc2ccccc2n1-c1nc(N2CCOC[C@H]2C)c2scc(SC)c2n1
IC50 [3]: 0.0242 µM
IC50 (LoVo [7]): 1.5 µM

C[C@@H]1COCCN1c1nc(-c2cccc3[nH]ccc23)nc2c(S(C)(=O)=O)csc12
IC50 [3]: 0.0031 µM
IC50 (LoVo [7]): 0.266 µM

C[C@@H]1COCCN1c1nc(-c2ccnc3[nH]ccc23)nc2c(C#N)csc12
IC50 [3]: 0.0526 µM
IC50 (LoVo [7]): 2.51 µM

Cc1nc2ccccc2n1-c1nc(N2CCOC[C@H]2C)c2scc(S(C)(=O)=O)c2n1
IC50 [3]: 0.0035 µM
IC50 (LoVo [7]): 0.635 µM

C[C@@H]1COCCN1c1nc(-c2c[nH]c3ccccc23)nc2c(S(C)(=O)=O)csc12
IC50 [3]: 0.005 µM
IC50 (LoVo [7]): 0.437 µM

CNc1nc2ccccc2n1-c1nc(N2CCOC[C@H]2C)c2scc(P(C)(C)=O)c2n1
IC50 [3]: 0.0062 µM
IC50 (LoVo [7]): 0.113 µM

C[C@@H]1COCCN1c1nc(-n2c(N)nc3cc(F)ccc32)nc2c(S(C)(=O)=O)csc12
IC50 [3]: 0.0012 µM
IC50 (LoVo [7]): 0.073 µM

C[C@@H]1COCCN1c1nc(-c2ccnc3[nH]ccc23)nc2c(C(N)=O)csc12
IC50 [3]: 0.0315 µM
IC50 (LoVo [7]): 0.37 µM

C[C@@H]1COCCN1c1nc(-c2ccnc3[nH]ccc23)nc2c(S(C)(=O)=O)csc12
IC50 [3]: 0.0058 µM
IC50 (LoVo [7]): 0.111 µM

CCc1nc2ccccc2n1-c1nc(N2CCOC[C@H]2C)c2scc(S(C)(=O)=O)c2n1
IC50 [3]: 0.0038 µM
IC50 (LoVo [7]): 0.657 µM

C[C@@H]1COCCN1c1nc(-n2cnc3ccccc32)nc2c(S(C)(=O)=O)csc12
IC50 [3]: 0.0023 µM
IC50 (LoVo [7]): 0.648 µM

C[C@@H]1COCCN1c1nc(-c2c(F)ncc3[nH]ccc23)nc2c(S(C)(=O)=O)csc12
IC50 [3]: 0.0047 µM
IC50 (LoVo [7]): 0.151 µM

CSc1nc2ccccc2n1-c1nc(N2CCOC[C@H]2C)c2scc(S(C)(=O)=O)c2n1
IC50 [3]: 0.113 µM

CNc1nc2ccccc2n1-c1nc(N2CCOC[C@H]2C)c2scc(S(=O)(=O)C3CC3)c2n1
IC50 [3]: 0.0028 µM
IC50 (LoVo [7]): 0.107 µM

CNc1nc2ccccc2n1-c1nc(N2CCOC[C@H]2C)c2scc(S(=O)(=O)C(C)C)c2n1
IC50 [3]: 0.0057 µM
IC50 (LoVo [7]): 0.224 µM

CNc1nc2ccccc2n1-c1nc(N2CCOC[C@H]2C)c2scc(S(C)(=N)=O)c2n1 (stereo partly specified)
IC50 [3]: 0.0055 µM
IC50 (LoVo [7]): 0.117 µM

CCCS(=O)(=O)c1csc2c(N3CCOC[C@H]3C)nc(-n3c(NC)nc4ccccc43)nc12
IC50 [3]: 0.0168 µM
IC50 (LoVo [7]): 0.626 µM

C[C@@H]1COCCN1c1nc(-n2c(N)nc3c(F)cccc32)nc2c(S(C)(=O)=O)csc12
IC50 [3]: 0.002 µM
IC50 (LoVo [7]): 0.381 µM

C[C@@H]1COCCN1c1nc(-n2nnc3ccccc32)nc2c(S(C)(=O)=O)csc12
IC50 [3]: 0.047 µM

C[C@@H]1COCCN1c1nc(-c2cc(Cl)cc3[nH]ccc23)nc2c(S(C)(=O)=O)csc12
IC50 [3]: 0.0036 µM
IC50 (LoVo [7]): 0.119 µM

CCP(=O)(CC)c1csc2c(N3CCOC[C@H]3C)nc(-n3c(NC)nc4ccccc43)nc12
IC50 [3]: 0.0062 µM
IC50 (LoVo [7]): 0.371 µM

CC(=O)c1csc2c(N3CCOC[C@H]3C)nc(-c3ccnc4[nH]ccc34)nc12
IC50 [3]: 0.0353 µM
IC50 (LoVo [7]): 0.931 µM

C[C@@H]1COCCN1c1nc(-c2cccc3[nH]ncc23)nc2c(S(C)(=O)=O)csc12
IC50 [3]: 0.0096 µM
IC50 (LoVo [7]): 0.391 µM

CC(=O)Nc1nc2ccccc2n1-c1nc(N2CCOC[C@H]2C)c2scc(S(C)(=O)=O)c2n1
IC50 [3]: 0.0132 µM
IC50 (LoVo [7]): 0.125 µM

C[C@@H]1COCCN1c1nc(-c2cccc3c2CC(=O)N3)nc2c(S(C)(=O)=O)csc12
IC50 [3]: 0.159 µM

C[C@@H]1COCCN1c1nc(-c2ccnc3[nH]ccc23)nc2c(S(C)(=N)=O)csc12 (stereo partly specified)
IC50 [3]: 0.0054 µM
IC50 (LoVo [7]): 0.398 µM

C[C@@H]1COCCN1c1nc(-c2cccc3c2CCN3)nc2c(S(C)(=O)=O)csc12
IC50 [3]: 0.0592 µM
IC50 (LoVo [7]): 1.89 µM

CCS(=O)(=O)c1csc2c(N3CCOC[C@H]3C)nc(-n3c(NC)nc4ccccc43)nc12
IC50 [3]: 0.0045 µM
IC50 (LoVo [7]): 0.089 µM

C=C(C)c1csc2c(N3CCOC[C@H]3C)nc(-c3ccnc4[nH]ccc34)nc12
IC50 [3]: 0.108 µM
